Test results from PMC4975872 (Journal of biomolecular screening, 2014).
Where two headings read alike, the source gives them in different places.

Columns and labels:
[1] = test system: ERK/β-arrestin interaction; experiment: ERK/β-arrestin interaction LinkLight assay, cytokine receptor response; format: cell-based, human; conditions: for S/B ratio: 0.1 μg/ml cytokine, Fig. S5; for EC50, stimulation of ERK/β-arrestin interaction signals by cytokines: endogenous cytokine receptors in U2OS cells, serum-free DMEM, 90 min, 37°C
[2] = test system: ERK/β-arrestin interaction; format: cell-based, human; conditions: inhibitor 15 min in serum-free DMEM, then 5% FBS for 90 min
[3] = test system: ERK/β-arrestin interaction; conditions: 10 μM agonist, Fig. S5
[4] = test system: ERK/β-arrestin interaction; experiment: ERK/β-arrestin interaction LinkLight assay, RTK ligand responses; format: cell-based, human; conditions: endogenous RTKs in U2OS cells, serum-free DMEM, 90 min, 37°C
S1P (endogenous GPCR) = format: cell-based, U2OS; conditions: read-out: EC50 values; n = 3
[5] = test system: ERK/β-arrestin interaction; format: cell-based, human; conditions: antagonist 15 min, then 1 μM adrenaline for 90 min

TNFα
S/B ratio [1]: 8.99 fold | EC50, stimulation of ERK/β-arrestin interaction signals by cytokines [1]: 5.65 ng/mL

Cc1nc(Nc2ncc(C(=O)Nc3c(C)cccc3Cl)s2)cc(N2CCN(CCO)CC2)n1 [dasatinib]
inhibition of FBS-induced ERK/β-arrestin interaction signals [2]: blocked

CNC[C@H](O)c1ccc(O)c(O)c1 [adrenaline]
S/B ratio [3]: 3.78 fold

O=C1Nc2ccc(I)cc2/C1=C/c1cc(Br)c(O)c(Br)c1 [GW5074]
inhibition of FBS-induced ERK/β-arrestin interaction signals [2]: did not block

O=C(NOCC1CC1)c1ccc(F)c(F)c1Nc1ccc(I)cc1Cl [CI-1040]
inhibition of FBS-induced ERK/β-arrestin interaction signals [2]: did not block

IL1β: recombinant human cytokine IL1β
S/B ratio [1]: 14.5 fold | EC50, stimulation of ERK/β-arrestin interaction signals by cytokines [1]: 2.8 ng/mL

NCCc1ccc(O)c(O)c1 [dopamine]
S/B ratio [3]: 3.66 fold

FGF-b: growth factor FGF-basic, RTK ligand
EC50, stimulation of luciferase signals by RTK ligands [4]: 3.87 ng/mL

CCCCCCCCCCCCC/C=C/[C@@H](O)[C@@H](N)COP(=O)(O)O [S1P, sphingosine 1-phosphate]
EC50 (S1P (endogenous GPCR)): 337 nM

EGF: epidermal growth factor, RTK ligand
EC50, stimulation of luciferase signals by RTK ligands [4]: 3.75 ng/mL

CN(C)CCN(C)CCc1ccc(Cl)c(Cl)c1 [BD-1047]
inhibition of GPCR agonist-induced ERK/β-arrestin interaction signals [5]: inhibit
